Results: patent US11492340B2 (priority 2017, dated 2022)
Several values for one entry are separate records, joined by “and”; a condition that tells them apart may be missing. Equal entries are not always repeated. Where two headings read alike, the source gives them in different places.

Columns and labels:
[1] = biological target: T1, isopropyl phosphate-aged eeAChE (Electrophorus electricus, UniProt O42275); type: biochemical, electric eel
T1 construct: purchased Sigma Aldrich

[2] = biological target: T2, methylphosphonate-aged AChE (Electrophorus electricus, UniProt O42275); type: biochemical, electric eel
T2 construct: purchased Sigma Aldrich

[3] = biological target: T3, methylphosphonate-aged eeAChE (Electrophorus electricus, UniProt O42275); type: biochemical, electric eel; settings: for screening efficacy, relative activity (FIG. 3B), in words: pH 8
T3 construct: purchased Sigma Aldrich

[4] = biological target: T1, isopropyl phosphate-aged eeAChE; type: biochemical, electric eel; remark: listed apart in the source
[5] = biological target: T3, methylphosphonate-aged eeAChE; assay: biochemical; parameters: species or system electric eel
[6] = biological target: T1, isopropyl phosphate-aged eeAChE; assay: biochemical; parameters: species or system electric eel
[7] = biological target: T1, isopropyl phosphate-aged eeAChE; type: biochemical, electric eel; settings: pH 8
[8] = biological target: T3, methylphosphonate-aged eeAChE; type: biochemical, electric eel; settings: pH 8
[9] = biological target: T3, methylphosphonate-aged eeAChE; type: biochemical, electric eel
[10] = biological target: T1, isopropyl phosphate-aged eeAChE; type: biochemical, electric eel; remark: listed apart in the source
[11] = biological target: isopropyl phosphate-aged (DFP-treated) recombinant huAChE (Homo sapiens, UniProt P22303); type: biochemical; settings: pH 9
physchem = settings: pH 6

T1 sequence (O42275 24-633): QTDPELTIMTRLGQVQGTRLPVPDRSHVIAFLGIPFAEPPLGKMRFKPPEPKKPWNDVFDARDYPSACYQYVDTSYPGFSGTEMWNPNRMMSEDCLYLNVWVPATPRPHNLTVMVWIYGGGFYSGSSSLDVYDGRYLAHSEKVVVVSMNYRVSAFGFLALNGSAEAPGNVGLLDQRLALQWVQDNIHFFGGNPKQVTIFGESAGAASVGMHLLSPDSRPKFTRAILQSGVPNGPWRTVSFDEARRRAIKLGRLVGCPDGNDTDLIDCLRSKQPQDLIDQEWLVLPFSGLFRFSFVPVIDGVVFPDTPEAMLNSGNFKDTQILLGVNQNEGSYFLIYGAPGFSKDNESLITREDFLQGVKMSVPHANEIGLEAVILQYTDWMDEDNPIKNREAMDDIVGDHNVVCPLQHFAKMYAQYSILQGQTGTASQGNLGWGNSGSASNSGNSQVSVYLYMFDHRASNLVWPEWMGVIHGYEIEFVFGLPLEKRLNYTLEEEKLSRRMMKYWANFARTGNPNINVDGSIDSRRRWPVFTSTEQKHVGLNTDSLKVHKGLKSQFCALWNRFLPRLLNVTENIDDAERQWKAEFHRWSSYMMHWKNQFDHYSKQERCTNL
T2 sequence (O42275 24-633): as above
T3 sequence (O42275 24-633): as above
Sequence of isopropyl phosphate-aged (DFP-treated) recombinant huAChE (P22303 32-614): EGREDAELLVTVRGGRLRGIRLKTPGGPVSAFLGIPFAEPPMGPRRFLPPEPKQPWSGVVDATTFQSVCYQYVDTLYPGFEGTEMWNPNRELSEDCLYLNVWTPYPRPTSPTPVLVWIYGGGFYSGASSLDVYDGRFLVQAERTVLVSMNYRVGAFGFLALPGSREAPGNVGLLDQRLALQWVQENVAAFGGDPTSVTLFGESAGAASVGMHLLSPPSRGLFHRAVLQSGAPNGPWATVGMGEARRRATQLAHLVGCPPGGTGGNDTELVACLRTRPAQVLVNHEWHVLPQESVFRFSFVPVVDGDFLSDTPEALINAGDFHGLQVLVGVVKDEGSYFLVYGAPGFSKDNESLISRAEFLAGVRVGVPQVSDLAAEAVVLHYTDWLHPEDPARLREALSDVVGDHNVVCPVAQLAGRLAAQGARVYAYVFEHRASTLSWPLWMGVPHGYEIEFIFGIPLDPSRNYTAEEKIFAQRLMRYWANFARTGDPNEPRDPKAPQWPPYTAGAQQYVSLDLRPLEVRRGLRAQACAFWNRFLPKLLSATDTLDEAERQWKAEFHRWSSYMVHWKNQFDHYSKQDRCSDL

Question: For `C[n+]1ccccc1/C=N/O` [2-PAM, 2-pralidoxime, reference compound], which “Percentage of AChE species: Aged” value [1] is on record?
Answer: 100%

Question: What about the “Percentage of AChE species: Native” value [1] of the same molecule?
Answer: 0%

Question: What about the “Percentage of AChE species: Realkylated” value [1] of the same molecule?
Answer: 0%

Question: And the “Percentage of AChE species: Aged” value [2]?
Answer: 100%

Question: What about the “Percentage of AChE species: Native” value [2] of the same molecule?
Answer: 0%

Question: What about the “Percentage of AChE species: Realkylated” value [2] of the same molecule?
Answer: 0%

Question: Which results are given for `Oc1cccnc1CN1CCCC1` [C8, 2-(pyrrolidin-1-ylmethyl)pyridin-3-ol]?
Answer: activity in comparison of scaffolds with pyrrolidine leaving group (M series), in words [3]: only active compound in this comparison; reactivation (resurrection of AChE activity) [3]: ~2.5%; screening efficacy, relative activity (FIG. 3B), in words [3]: most potent candidate in this screen; reactivation (resurrection of AChE activity) [4]: 1.25%; EC50 [5]: 1.18 mM; EC50 [6]: 5.87 mM; apparent reaction rate [7]: 0.20 % per hour; resurrected relative activity [7]: 20.4% and 30.4%; apparent reaction rate [8]: 0.32 % per hour; resurrected relative activity [8]: 32.7%; Percentage of AChE species: Aged [1]: 84.6%; Percentage of AChE species: Native [1]: 15.4%; Percentage of AChE species: Realkylated [1]: 0%; Percentage of AChE species: Aged [2]: 97.9%; Percentage of AChE species: Native [2]: 2.1%; Percentage of AChE species: Realkylated [2]: 0%; Relative activity (percentage of positive control) ([9]; pH 6): 0.273 ± 0.004%; Relative activity (percentage of positive control) ([9]; pH 7): 1.24 ± 0.02%; Relative activity (percentage of positive control) ([9]; pH 8): 8.47 ± 0.17%; Relative activity (percentage of positive control) ([10]; pH 6): 0.68 ± 0.06%; Relative activity (percentage of positive control) ([10]; pH 7): 1.04 ± 0.07%; Relative activity (percentage of positive control) ([10]; pH 8): 3.58 ± 0.33%; Relative activity (percentage of positive control) ([10]; pH 9): 5.27 ± 0.59%; aged enzyme resurrected [11]: 18%; pKa (physchem): 7 to 8

Question: Which “screening efficacy, relative activity (FIG. 3B), in words” value [3] does the source give for `CCN(CC)Cc1ncccc1O` [C7, 2-((diethylamino)methyl)pyridin-3-ol] here?
Answer: highest efficacy among C1 to C7
